What all share (assay type): cell-based, human
For experiment [1], the system named is U87. Kind of experiment: Cold [19F] standard compound uptake in cells treated with apoptotic inducer, LC/MS (U87). The note with it: cold standard compound 10 μM, 2 h, 1 mM 5FU for 2 days, % uptake normalized per mg protein extract. Here is the method: (§1) When cells grown in 6-well plates reached 80% confluence, the growth medium was replaced with 2 ml of fresh medium containing 1 mM of 5FU. After two days of apoptotic induction, the standard compound was added into the cultures (control and 5FU treated) at a final concentration of 10 μM. The cells were cultured in the incubator for 2 hours for compound uptake. Then, (in the case of experiments involving the use of caspase-3 inhibitors as blockers, the inhibitor was added to the cells 1 hour early before the addition of standard compound). 100 μl of cell culture medium for each sample was collected, and the cells were harvested by centrifugation. Cell pellets were washed twice with 1×PBS, and lysed in 100 μl of lysis buffer. Both cell lysate and medium were boiled for 5 minutes to denature proteins, cooled down on ice, then 100 μl of chloroform/methanol (50/50 ratio) were added. After vortexing and extraction, the samples were centrifuged in Eppendorf tubes in a micro centrifuge at 13000 rpm for 15 minutes at 4 C. 50 μl of the supernatant was transferred to an HPLC vial. The amounts of compound (or product of caspase-3 cleavage) inside the cells and in the medium were measured by LC/MS. The % uptake=total amount of cell uptake/total amount of compound X 100%. The % uptake was normalized by the amount of cellular protein extract (mg): % Uptake/mg protein extracts.

Experiment [2] deals with H2122. The experiment in a line: Cold [19F] standard compound uptake in cells treated with apoptotic inducer, LC/MS (H2122). The note with it: cold standard compound 10 μM, 2 h, 1 mM 5FU for 2 days, % uptake normalized per mg protein extract. How it is done:
as §1

The subject of experiment [3] is HT29. Kind of experiment: Cold [19F] standard compound uptake in cells treated with apoptotic inducer, LC/MS (HT29). The note with it: cold standard compound 10 μM, 2 h, 1 mM 5FU for 2 days, % uptake normalized per mg protein extract. How it is done: as §1
For experiment [4], the system named is A498. The experiment in a line: Cold [19F] standard compound uptake in cells treated with apoptotic inducer, LC/MS (A498). The note with it: cold standard compound 10 μM, 2 h, 1 mM 5FU for 2 days, % uptake normalized per mg protein extract. How it is done:
as §1

The test system of experiment [5] is A498. The experiment in a line: [18F]-tracer compound uptake in cancer cell lines treated with apoptotic inducer 5FU (A498). The note with it: [18F]-tracer 10 μCi/well, 2 h incubation, 1 mM 5FU for 2 days; % uptake normalized per mg protein extract. How it is done: (§2) Cells grown overnight and having reached about 80% confluence in 6-well plates were exposed to 1 mM of apoptotic inducer 5FU for 2 days in a cell culture incubator. The [18F]-labeled tracer was added into each well (triplicates for control and 5FU treated) at 10 μCi/well. (in case of experiments involving the use of caspase-3 inhibitors as blockers, the inhibitor was added to the cells 1 hour before the addition of the [18F]-tracer). The cells were then incubated for two hours. Cells were collected by scrape and centrifugation. Cell pellets were washed twice with 1λ PBS. The amount of tracer inside the cells and in the medium was measured by y-counter. The % Uptake=total CPM inside cells/total tracer CPM×100%. The % Uptake was normalized by the amount of cellular protein extract (mg): % uptake/mg protein extracts.

The subject of experiment [6] is HT29. The experiment in a line: [18F]-tracer compound uptake in cancer cell lines treated with apoptotic inducer 5FU (HT29). The note with it: [18F]-tracer 10 μCi/well, 2 h incubation, 1 mM 5FU for 2 days; % uptake normalized per mg protein extract. Here is the method:
as §2

Experiment [7] deals with U87. The experiment in a line: [18F]-tracer compound uptake in cancer cell lines treated with apoptotic inducer 5FU (U87). Conditions: [18F]-tracer 10 μCi/well, 2 h incubation, 1 mM 5FU for 2 days; % uptake normalized per mg protein extract. Here is the method:
as §2

Square brackets hold non-standard residues; d marks the D form. Peptide text beside a SMILES is read from it. * marks the point of attachment. PEG4 = NCCOCCOCCOCCOCCC(=O)O; X1 = O=C(Cn1cc(CCCF)nn1)*

Turning to `CC(C)[C@H](NC(=O)[C@H](CCC(=O)O)NC(=O)[C@H](CC(=O)O)NC(=O)Cn1cc(CCCF)nn1)C(=O)N[C@@H](CC(=O)O)C(=O)N[C@@H](C)C(=O)NCCOCCOCCOCCOCCC(=O)O` [Compound 21] (X1-DEVDA[PEG4]-OH), the “percent uptake U87” value in experiment [1] was 2.0%. Moreover, in experiment [2], the “percent uptake H2122” value is 1.3%. Further, the “percent uptake HT29” value in experiment [3] worked out at 1.1%. In addition, the “percent uptake A498” value in experiment [4] was 2.1%.
On to `CC(C)[C@H](NC(=O)[C@H](CCC(=O)O)NC(=O)[C@H](CC(=O)O)NC(=O)Cn1cc(CCCF)nn1)C(=O)N[C@@H](CC(=O)O)C(=O)NCC(=O)N[C@@H](CCCCN)C(=O)N[C@@H](CCCCN)C(=O)N[C@@H](CCCCN)C(=O)N[C@@H](CCCCN)C(N)=O` [Compound 27] (X1-DEVDGKKKK-NH2), for which the “percent uptake U87” value in experiment [1] was determined as 2.5%. The “percent uptake H2122” value in experiment [2] was 2.0%. The “percent uptake HT29” value in experiment [3] turned out to be 1.7%. In addition, in experiment [4], the “percent uptake A498” value is 4.5%.
As to `CC(C)[C@H](NC(=O)[C@H](CCC(=O)O)NC(=O)[C@H](CC(=O)O)NC(=O)Cn1cc(CCC[18F])nn1)C(=O)N[C@@H](CC(=O)O)C(=O)N[C@@H](C)C(=O)NCCOCCOCCOCCOCCC(=O)O` [^18F-21], in experiment [5], the “percent uptake A498” value came out at 1.8%. In addition, the “percent uptake HT29” value in experiment [6] amounted to 2.1%. Besides, the “percent uptake U87” value in experiment [7] is 2.1%.
For `CC(C)[C@H](NC(=O)[C@H](CCC(=O)O)NC(=O)[C@H](CC(=O)O)NC(=O)C1OC(CNC(=O)Cn2cc(CCC[18F])nn2)C(O)C(O)C1O)C(=O)N[C@@H](CC(=O)O)C(=O)NCC(N)=O` (stereo partly drawn) [^18F-49], the “percent uptake A498” value in experiment [5] is recorded as 1.5%.
For `CC(C)[C@H](NC(=O)[C@H](CCC(=O)O)NC(=O)[C@H](CC(=O)O)NC(=O)C1OC(CNC(=O)Cn2cc(CCC[18F])nn2)C(O)C(O)C1O)C(=O)N[C@@H](CC(=O)O)C(=O)N[C@@H](C)C(=O)NCCOCCOCCOCCOCCC(=O)O` (stereo partly drawn) [^18F-56], the “percent uptake A498” value in experiment [5] was 2.1%. The “percent uptake HT29” value in experiment [6] is reported as 1.9%. Also, the “percent uptake U87” value in experiment [7] stood at 2.1%.

These data come from US9005577B2, “Substrate based PET imaging agents” (Siemens Medical Solutions USA, Inc., priority 2008, dated 2015).
